According to patent US9346820B2, “HIV-1 protease inhibitors having gem-di-fluoro bicyclic P2-ligands” (priority 2013, dated 2016):
“And” between values parts separate entries of the source, which are not always exact repeats. Equal entries are not always repeated.

Key:
[1] = tested on: HIV-1MDR/JSL; test: microbe, parasite or virus in culture; format: cell-based; settings: for EC50: Human immunodeficiency virus 1, read-out: EC50 HIV-1MDR/JSL (R5); for fold change of EC50 HIV-1MDR/JSL vs HIV-1ERS104pre: number in parentheses
Procedure: (§1) All primary HIV-1 strains were passaged once or twice in 3-day-old phytohemagglutinin activated peripheral blood mononuclear cells (PHA-PBM), and the culture supernatants were stored at −80° C. until use.
(§2) The susceptibility of HIV-1LAI to various drugs was determined as previously described with minor modifications. Briefly, MT-2 cells (10^4/ml) were exposed to 100 50% tissue culture infectious doses (TCID50) of HIV-1LAI in the presence or absence of various concentrations of drugs in 96-well microculture plates and were incubated at 37° C. for 7 days. After 100 μl of the medium was removed from each well, 3-(4,5-dimetylthiazol-2-yl)-2,5-diphenyltetrazolium bromide (MTT) solution (10 μl, 7.5 mg/ml in phosphate-buffered saline) was added to each well in the plate, followed by incubation at 37° C. for 2 h. […] All assays were performed in duplicate or triplicate. […] To determine the sensitivity of primary HIV-1 isolates to drugs, phytohemagglutinin-stimulated peripheral blood mononuclear cells (PHA-PBMC) (10^6/ml) were exposed to 50 TCID50 of each primary HIV-1 isolate and cultured in the presence or absence of various concentrations of drugs in 10-fold serial dilutions in 96-well microculture plates. In determining the drug susceptibility of certain laboratory HIV-1 strains, MT-4 cells were employed as target cells as previously described with minor modifications. In brief, MT-4 cells (10^5/ml) were exposed to 100 TCID50 of drug-resistant HIV-1 strains in the presence or absence of various concentrations of drugs and were incubated at 37° C. On day 7 of culture, the supernatants were harvested and the amounts of p24 Gag protein were determined by using a fully automated chemiluminescent enzyme immunoassay system (Lumipulse F: Fujirebio Inc., Tokyo). […] All assays were performed in duplicate or triplicate. PHA-PBMs were derived from a single donor in each independent experiment. Thus, for obtaining the data, three different donors were recruited.

[2] = tested on: HIV-1MDR/B; test: microbe, parasite or virus in culture; format: cell-based; settings: for EC50: Human immunodeficiency virus 1, read-out: EC50 HIV-1MDR/B (X4); for fold change of EC50 HIV-1MDR/B vs HIV-1ERS104pre: number in parentheses
Procedure: as §1, §2

[3] = tested on: HIV-1MDR/MM; test: microbe, parasite or virus in culture; format: cell-based; settings: for EC50: Human immunodeficiency virus 1, read-out: EC50 HIV-1MDR/MM (R5); for fold change of EC50 HIV-1MDR/MM vs HIV-1ERS104pre: number in parentheses
Procedure: as §1, §2

[4] = tested on: HIV-1MDR/G; test: microbe, parasite or virus in culture; format: cell-based; settings: for EC50: Human immunodeficiency virus 1, read-out: EC50 HIV-1MDR/G (X4); for fold change of EC50 HIV-1MDR/G vs HIV-1ERS104pre: number in parentheses
Procedure: as §1, §2

[5] = tested on: HIV-1MDR/TM; test: microbe, parasite or virus in culture; format: cell-based; settings: for EC50: Human immunodeficiency virus 1, read-out: EC50 HIV-1MDR/TM (X4); for fold change of EC50 HIV-1MDR/TM vs HIV-1ERS104pre: number in parentheses
Procedure: as §1, §2

[6] = tested on: HIV-1GRL04810^RP18; test: microbe, parasite or virus in culture; format: cell-based; settings: for EC50: Human immunodeficiency virus 1, MT4, read-out: EC50 HIV-1GRL04810^RP18; for fold change of EC50 HIV-1GRL04810^RP18 vs HIV-1NL4-3: number in parentheses
Procedure: as §2
(§3) The amounts of p24 were measured every two days for up to 7 days.

[7] = tested on: HIV-1GRL05010^RP10; test: microbe, parasite or virus in culture; format: cell-based; settings: for EC50: Human immunodeficiency virus 1, MT4, read-out: EC50 HIV-1GRL05010^RP10; for fold change of EC50 HIV-1GRL05010^RP10 vs HIV-1NL4-3: number in parentheses
Procedure: as §2, §3

[8] = tested on: HIV-1LAI; test: Antiviral activity of brain-side medium from the BBB assay, MTT assay in MT-2 cells; format: cell-based
Procedure: The “brain-side” of the medium containing a compound collected in the BBB in vitro assay, was subjected to antiviral assays. Two HIV-1 isolates were employed, HIV-1LAI (Panel A) and HIV-1ERS104pre (Panel B). […] Dilution ranges were between 10-fold and 10,000-fold, and the percentage of viral inhibition was used as an endpoint. […] Assays were conducted in duplicate and error bars show standard deviations.
The assay was carried out using 10, 100, 1000 and 10000 times-diluted brain-side stocks of compounds.

[9] = Partition and distribution coefficients, shake-flask method; format: physicochemical
Procedure: On day −1 of the experimental setting, saturation of 1-octanol (CH3 (CH2)6CH2OH) (Nacalai Tesque, Kyoto, Japan) water and tris-buffered saline (10X working solution 20 mM Tris, pH 7.4 and 0.9% NaCl, Sigma-Aldrich, St. Louis, Mo.) took place. Four different flasks were used: One containing 50 ml of water plus 100 ml of 1-octanol, the second flask contained 1-octanol saturated with water adding 50 ml of 1-octanol and 100 ml of water. The same ratios and volumes were kept for 1-octanol saturated with tris-buffer and tris-buffer saturated with 1-octanol. The flasks were sealed and placed into a room temperature bio shaker for 24 hours at 90 revolutions per minute. […] Successive dilutions were made to obtain concentrations of 10 μM, 1 μM and 0.1 μM. A standard curve was generated on a light spectrophotometer (DU Series 700, Beckman Coulter Fullerton, Calif.) at 230 nanometer absorbances.
On day 1 of the experiment, the lipid and liquid interfaces were separated, and compounds were diluted again from 20 mM DMSO to 100 μM using the 1-octanol, water and Tris-buffered saline obtained from the shake-flask assay. The resulting diluted compounds were then added to separate serum tubes containing equal proportions of 1-octanol and water, and 1-octanol and Tris-buffered saline. The solution was handshaken for 5 minutes and then centrifuged at 3,500 rpm and room temperature for 20 minutes. Finally, the compounds were recovered from the 1-octanol, Tris-buffer and water interfaces and then measured on a light spectrophotometer.
The values for logP and logD were obtained by applying the following mathematical formulas: […]
The addition of fluorine atoms is generally expected to confer greater lipophilicity on nucleoside analogs and certain compounds (37-39). […] 1-Octanol, organic alcohol, and water were used for logP determination, while tris-buffered saline (pH 7.4) and water were utilized for logD determination. Prior to obtaining the actual values, a standard curve was generated as a reference and drug concentrations attained for each compartment (1-octanol, water and tris-buffered saline) were measured on a light spectrophotometer (at 230 nanometer absorbance) as previously described by Rak et al. (40).
DRV was used as a control. N-octanol, an organic alcohol, and water were used for logP determination, while tris buffer and water were utilized for the logD assay. Prior to the retrieval of actual values a standard curve was generated as a reference. The drug concentrations for each compartment (octanol, water and tris buffer) were measured at 230 nanometer absorbances using a light spectrophotometer. Assay was performed following the OECD guidelines for testing of chemicals “Partition coefficient (n-octanol-water): shake flask method”, adopted by the council on 27 Jul. 1995.^(a) n-octanol used for logPOW determination;^(b) n-octanol used for logD assay. The formulas

For `COC(=O)N[C@H](C(=O)N[C@@H](Cc1ccccc1)[C@@H](O)CN(Cc1ccc(-c2ccccn2)cc1)NC(=O)[C@@H](NC(=O)OC)C(C)(C)C)C(C)(C)C` [ATV, Atazanavir], the EC50 [1] was greater than 1000 nM, the “fold change of EC50 HIV-1MDR/JSL vs HIV-1ERS104pre” value (shortened to “fold change of EC50 HIV-1MDR/JSL”) [1] was greater than 476 fold and the EC50 [2] was 450 nM. For the same molecule, the “fold change of EC50 HIV-1MDR/B vs HIV-1ERS104pre” value (from here on “fold change of EC50 HIV-1MDR/B”) [2] was 214 fold, the EC50 [3] was 81 nM and the “fold change of EC50 HIV-1MDR/MM vs HIV-1ERS104pre” value (shortened to “fold change of EC50 HIV-1MDR/MM”) [3] was 38 fold. The EC50 [4] was 42 nM, the “fold change of EC50 HIV-1MDR/G vs HIV-1ERS104pre” value (“fold change of EC50 HIV-1MDR/G” for short) [4] was 19 fold and the EC50 [5] was 56 nM. For the same molecule, the “fold change of EC50 HIV-1MDR/TM vs HIV-1ERS104pre” value (shortened to “fold change of EC50 HIV-1MDR/TM”) [5] was 24 fold, the EC50 [6] was 325 nM and the “fold change of EC50 HIV-1GRL04810^RP18 vs HIV-1NL4-3” value [6] was 81 fold. For the same molecule, the EC50 [7] was 95 nM and the “fold change of EC50 HIV-1GRL05010^RP10 vs HIV-1NL4-3” value [7] was 24 fold.

For `CC(C)(C)NC(=O)[C@@H]1C[C@@H]2CCCC[C@@H]2CN1C[C@@H](O)[C@H](Cc1ccccc1)NC(=O)[C@H](CC(N)=O)NC(=O)c1ccc2ccccc2n1` [SQV, Saquinavir], the EC50 [1] was 530 nM, the “fold change of EC50 HIV-1MDR/JSL” value [1] was 133 fold and the EC50 [2] was 350 nM. For the same molecule, the “fold change of EC50 HIV-1MDR/B” value [2] was 90 fold, the EC50 [3] was 110 nM and the “fold change of EC50 HIV-1MDR/MM” value [3] was 27 fold. The EC50 [4] was 39 nM, the “fold change of EC50 HIV-1MDR/G” value [4] was 10 fold and the EC50 [5] was 100 nM. For the same molecule, the “fold change of EC50 HIV-1MDR/TM” value [5] was 25 fold, the EC50 [6] was 32 nM and the “fold change of EC50 HIV-1GRL04810^RP18 vs HIV-1NL4-3” value [6] was 1 fold. The EC50 [7] was 36 nM, the “fold change of EC50 HIV-1GRL05010^RP10 vs HIV-1NL4-3” value [7] was 1 fold and the “suppression levels of brain-side preparations compared (FIG. 5A)” value ([8]; HIV-1LAI) was “less than those of GRL-04810^brain and GRL-05010^brain”.

For `COc1ccc(S(=O)(=O)N(CC(C)C)C[C@@H](O)[C@H](Cc2ccccc2)NC(=O)OC2CO[C@H]3OCC(F)(F)[C@@H]23)cc1` (stereo partly drawn) [GRL-04810], the EC50 [1] was 21 nM, the “fold change of EC50 HIV-1MDR/JSL” value [1] was 10 fold and the EC50 [2] was 14 nM. For the same molecule, the “fold change of EC50 HIV-1MDR/B” value [2] was 7 fold, the EC50 [3] was 2 nM and the “fold change of EC50 HIV-1MDR/MM” value [3] was 1 fold. For the same molecule, the EC50 [4] was 4 nM, the “fold change of EC50 HIV-1MDR/G” value [4] was 2 fold and the EC50 [5] was 4 nM. For the same molecule, the “fold change of EC50 HIV-1MDR/TM” value [5] was 2 fold, the EC50 [6] was 33 nM and the “fold change of EC50 HIV-1GRL04810^RP18 vs HIV-1NL4-3” value [6] was 66 fold. The EC50 [7] was 29 nM, the “fold change of EC50 HIV-1GRL05010^RP10 vs HIV-1NL4-3” value [7] was 58 fold and the “suppression of HIV-1LAI replication” value ([8]; 10-fold diluted brain-side medium) was 94%. For the same molecule, the “suppression of HIV-1LAI replication” value ([8]; 100-fold diluted brain-side medium) was 45%, the “Log POW (Octanol/Water)” value [9] was −0.14 and the “Concentration in octanol^(b)” value ([9]; n-octanol used for logD assay) was 72 µM and 72.00 µM. The “Concentration in octanol^(a)” value ([9]; n-octanol used for logPOW determination) was 70.00 µM, the “Log DOct/Tris pH 7.40” value ([9]; pH 7.4) was −0.29 and the “Concentration in tris buffer” value ([9]; shake flask, 100 μM, 230 nm) was 42.32 µM. For the same molecule, the Concentration in water ([9]; shake flask, 100 μM, 230 nm) was 99.78 µM.
